Results taken from the supplement of paper PMC10307832.

How the values were obtained:
Assay in all cases: relative viability (nuclei count vs DMSO), 5 days (fraction); higher = more cells survive
kb NB 142-70 + Foretinib = compound: C1CSC2=C(C(=O)N1)SC3=C2C=C(C=C3)O [kb NB 142-70] + COc1cc2c(Oc3ccc(NC(=O)C4(C(=O)Nc5ccc(F)cc5)CC4)cc3F)ccnc2cc1OCCCN1CCOCC1 [Foretinib] (partner 0.25 µM)
Outline: (§1)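 Lung cancer cell lines, seeded in 1536-well plates, were treated the following day by pin tool with a single drug or with five library-drug doses (not always all listed) in √10 steps on top of a fixed anchor-drug dose. Cells were fixed and nuclei stained in one step after 5 days, and nuclei were counted. Relative viability is the nuclei count for treated wells divided by that for vehicle wells, reported as medians of duplicate plates.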

[1] = compound: C1CSC2=C(C(=O)N1)SC3=C2C=C(C=C3)O [kb NB 142-70] + C[C@@H](Oc1cc(-c2cnn(C3CCNCC3)c2)cnc1N)c1c(Cl)ccc(F)c1Cl [Crizotinib] (partner 1 µM)
Outline: as §1

[2] = compound: C1CSC2=C(C(=O)N1)SC3=C2C=C(C=C3)O [kb NB 142-70] + C[C@]1(O)C[C@@H](c2nc(-c3ccc4ccc(-c5ccccc5)nc4c3)c3c(N)nccn32)C1 [Linsitinib] (partner 1 µM)
Outline: as §1

[3] = compound: NCC(=O)Nc1ccc(-n2nc(C(F)(F)F)cc2-c2ccc3c(ccc4ccccc43)c2)cc1 + CC(=O)Nc1cccc(-n2c(=O)n(C3CC3)c(=O)c3c(Nc4ccc(I)cc4F)n(C)c(=O)c(C)c32)c1 [Trametinib] (partner 0.02 µM)
Outline: as §1

[4] = compound: NCC(=O)Nc1ccc(-n2nc(C(F)(F)F)cc2-c2ccc3c(ccc4ccccc43)c2)cc1 + CS(=O)(=O)N1CCN(Cc2cc3nc(-c4cccc5[nH]ncc45)nc(N4CCOCC4)c3s2)CC1 [Pictilisib] (partner 1 µM)
Outline: as §1

NCI-H1651
relative viability (kb NB 142-70 + Foretinib; first compound 0.1 µM): 0.802
relative viability (kb NB 142-70 + Foretinib; first compound 1 µM): 0.683
relative viability (kb NB 142-70 + Foretinib; first compound 3.162 µM): 0.618
relative viability ([1]; first compound 0.1 µM): 0.908
relative viability ([1]; first compound 1 µM): 0.842
relative viability ([1]; first compound 3.162 µM): 0.879
relative viability ([2]; first compound 0.1 µM): 1.04
relative viability ([2]; first compound 1 µM): 0.929
relative viability ([2]; first compound 3.162 µM): 0.376
relative viability ([3]; first compound 0.02 µM): 0.804
relative viability ([3]; first compound 0.06325 µM): 0.815
relative viability ([3]; first compound 0.2 µM): 0.858
relative viability ([3]; first compound 0.6325 µM): 0.798
relative viability ([3]; first compound 2 µM): 0.851
relative viability ([4]; first compound 0.02 µM): 0.58
relative viability ([4]; first compound 0.06325 µM): 0.591
relative viability ([4]; first compound 0.2 µM): 0.592
relative viability ([4]; first compound 0.6325 µM): 0.467
relative viability ([4]; first compound 2 µM): 0.513

NCI-H441
relative viability (kb NB 142-70 + Foretinib; first compound 0.1 µM): 0.939
relative viability (kb NB 142-70 + Foretinib; first compound 1 µM): 1.15
relative viability (kb NB 142-70 + Foretinib; first compound 3.162 µM): 0.459
relative viability ([1]; first compound 0.1 µM): 0.958
relative viability ([1]; first compound 1 µM): 0.64
relative viability ([1]; first compound 3.162 µM): 0.433
relative viability ([2]; first compound 0.1 µM): 0.656
relative viability ([2]; first compound 1 µM): 0.457
relative viability ([2]; first compound 3.162 µM): 0.356
relative viability ([3]; first compound 0.02 µM): 0.394
relative viability ([3]; first compound 0.06325 µM): 0.436
relative viability ([3]; first compound 0.2 µM): 0.507
relative viability ([3]; first compound 0.6325 µM): 0.523
relative viability ([3]; first compound 2 µM): 0.555
relative viability ([4]; first compound 0.02 µM): 0.469
relative viability ([4]; first compound 0.06325 µM): 0.441
relative viability ([4]; first compound 0.2 µM): 0.469
relative viability ([4]; first compound 0.6325 µM): 0.366
relative viability ([4]; first compound 2 µM): 0.575

LCLC-103H
relative viability (kb NB 142-70 + Foretinib; first compound 0.1 µM): 0.715
relative viability (kb NB 142-70 + Foretinib; first compound 1 µM): 0.744
relative viability (kb NB 142-70 + Foretinib; first compound 3.162 µM): 0.815
relative viability ([1]; first compound 0.1 µM): 0.997
relative viability ([1]; first compound 1 µM): 1.12
relative viability ([1]; first compound 3.162 µM): 1.03
relative viability ([2]; first compound 0.1 µM): 0.989
relative viability ([2]; first compound 1 µM): 1.2
relative viability ([2]; first compound 3.162 µM): 1.15
relative viability ([3]; first compound 0.02 µM): 0.67
relative viability ([3]; first compound 0.06325 µM): 0.688
relative viability ([3]; first compound 0.2 µM): 0.694
relative viability ([3]; first compound 0.6325 µM): 0.67
relative viability ([3]; first compound 2 µM): 0.618
relative viability ([4]; first compound 0.02 µM): 0.606
relative viability ([4]; first compound 0.06325 µM): 0.61
relative viability ([4]; first compound 0.2 µM): 0.571
relative viability ([4]; first compound 0.6325 µM): 0.648
relative viability ([4]; first compound 2 µM): 0.673

LCLC-97TM1
relative viability (kb NB 142-70 + Foretinib; first compound 0.1 µM): 1.01
relative viability (kb NB 142-70 + Foretinib; first compound 1 µM): 0.883
relative viability (kb NB 142-70 + Foretinib; first compound 3.162 µM): 0.606
relative viability ([1]; first compound 0.1 µM): 0.382
relative viability ([1]; first compound 1 µM): 0.331
relative viability ([1]; first compound 3.162 µM): 0.201
relative viability ([2]; first compound 0.1 µM): 0.192
relative viability ([2]; first compound 1 µM): 0.187
relative viability ([2]; first compound 3.162 µM): 0.172
relative viability ([3]; first compound 0.02 µM): 0.21
relative viability ([3]; first compound 0.06325 µM): 0.215
relative viability ([3]; first compound 0.2 µM): 0.213
relative viability ([3]; first compound 0.6325 µM): 0.198
relative viability ([3]; first compound 2 µM): 0.189
relative viability ([4]; first compound 0.02 µM): 0.29
relative viability ([4]; first compound 0.06325 µM): 0.215
relative viability ([4]; first compound 0.6325 µM): 0.178
relative viability ([4]; first compound 2 µM): 0.187

NCI-H727
relative viability (kb NB 142-70 + Foretinib; first compound 0.1 µM): 1.06
relative viability (kb NB 142-70 + Foretinib; first compound 1 µM): 0.969
relative viability (kb NB 142-70 + Foretinib; first compound 3.162 µM): 1.15
relative viability ([1]; first compound 0.1 µM): 0.752
relative viability ([1]; first compound 1 µM): 1.06
relative viability ([1]; first compound 3.162 µM): 0.592
relative viability ([2]; first compound 0.1 µM): 0.356
relative viability ([2]; first compound 1 µM): 0.323
relative viability ([2]; first compound 3.162 µM): 0.28
relative viability ([3]; first compound 0.02 µM): 0.411
relative viability ([3]; first compound 0.06325 µM): 0.372
relative viability ([3]; first compound 0.2 µM): 0.351
relative viability ([3]; first compound 0.6325 µM): 0.346
relative viability ([3]; first compound 2 µM): 0.394
relative viability ([4]; first compound 0.02 µM): 0.427
relative viability ([4]; first compound 0.06325 µM): 0.45
relative viability ([4]; first compound 0.2 µM): 0.406
relative viability ([4]; first compound 0.6325 µM): 0.362
relative viability ([4]; first compound 2 µM): 0.533

NCI-H1355
relative viability (kb NB 142-70 + Foretinib; first compound 0.1 µM): 0.946
relative viability (kb NB 142-70 + Foretinib; first compound 1 µM): 1.06
relative viability (kb NB 142-70 + Foretinib; first compound 3.162 µM): 0.975
relative viability ([1]; first compound 0.1 µM): 1.02
relative viability ([1]; first compound 1 µM): 1.03
relative viability ([1]; first compound 3.162 µM): 1.05
relative viability ([2]; first compound 0.1 µM): 0.781
relative viability ([2]; first compound 1 µM): 0.835
relative viability ([2]; first compound 3.162 µM): 0.757
relative viability ([3]; first compound 0.02 µM): 0.414
relative viability ([3]; first compound 0.06325 µM): 0.481
relative viability ([3]; first compound 0.2 µM): 0.47
relative viability ([3]; first compound 0.6325 µM): 0.428
relative viability ([3]; first compound 2 µM): 0.433
relative viability ([4]; first compound 0.02 µM): 0.388
relative viability ([4]; first compound 0.06325 µM): 0.491
relative viability ([4]; first compound 0.2 µM): 0.339
relative viability ([4]; first compound 0.6325 µM): 0.411
relative viability ([4]; first compound 2 µM): 0.552

HOP-62
relative viability (kb NB 142-70 + Foretinib; first compound 0.1 µM): 1.19
relative viability (kb NB 142-70 + Foretinib; first compound 1 µM): 1.18
relative viability (kb NB 142-70 + Foretinib; first compound 3.162 µM): 1.02
relative viability ([1]; first compound 0.1 µM): 0.869
relative viability ([1]; first compound 1 µM): 1.02
relative viability ([1]; first compound 3.162 µM): 1.03
relative viability ([2]; first compound 0.1 µM): 0.996
relative viability ([2]; first compound 1 µM): 0.906
relative viability ([2]; first compound 3.162 µM): 0.945
relative viability ([3]; first compound 0.02 µM): 0.395
relative viability ([3]; first compound 0.06325 µM): 0.378
relative viability ([3]; first compound 0.2 µM): 0.378
relative viability ([3]; first compound 0.6325 µM): 0.368
relative viability ([3]; first compound 2 µM): 0.336
relative viability ([4]; first compound 0.02 µM): 0.775
relative viability ([4]; first compound 0.06325 µM): 0.577
relative viability ([4]; first compound 0.2 µM): 0.68
relative viability ([4]; first compound 0.6325 µM): 0.752
relative viability ([4]; first compound 2 µM): 0.623

NCI-H2085
relative viability (kb NB 142-70 + Foretinib; first compound 0.1 µM): 0.964
relative viability (kb NB 142-70 + Foretinib; first compound 1 µM): 1.06
relative viability (kb NB 142-70 + Foretinib; first compound 3.162 µM): 0.513
relative viability ([1]; first compound 0.1 µM): 0.754
relative viability ([1]; first compound 1 µM): 0.814
relative viability ([1]; first compound 3.162 µM): 0.663
relative viability ([2]; first compound 0.1 µM): 0.807
relative viability ([2]; first compound 1 µM): 0.515
relative viability ([2]; first compound 3.162 µM): 0.599
relative viability ([3]; first compound 0.02 µM): 0.402
relative viability ([3]; first compound 0.06325 µM): 0.623
relative viability ([3]; first compound 0.2 µM): 0.507
relative viability ([3]; first compound 0.6325 µM): 0.547
relative viability ([3]; first compound 2 µM): 0.626
relative viability ([4]; first compound 0.02 µM): 0.483
relative viability ([4]; first compound 0.06325 µM): 0.443
relative viability ([4]; first compound 0.2 µM): 0.436
relative viability ([4]; first compound 0.6325 µM): 0.42
relative viability ([4]; first compound 2 µM): 0.469
